Measured values reported in patent US12344599B2, “Prodigiosin analogs and methods of use” (Institute For Cancer Research, priority 2016, dated 2025).

Experiments:
[1] = test system: HT29 tumor xenografts; format: in vivo, mouse
Experimental: One million HT29 were implanted subcutaneously in the flanks in each athymic nude mouse (female, 4-6 weeks old). The mice were divided at random into two groups and treated with the vehicle (10% DMSO, 20% Kollipher EL in PBS) and PG3-Oc (5 mg/kg, 3 times/week) by intraperitoneal injection when the tumor masses reached a size of 5 to 6 mm. Subsequently, tumor volumes were measured with a caliper and calculated using V=0.5×Length×Width^2. Twenty three days after treatment, the mice were euthanized and tumors were excised. H & E staining and Immunohistochemistry (IHC) of paraffin-embedded tumor and tissue sections were performed at the Fox Chase Cancer Center Histopathology Facility.
To evaluate the antitumor effects of PG3-Oc in vivo, a human tumor xenograft model was established by subcutaneous injection of human colon cancer cells into nude mice. After the tumor volume reached approximately 50 mm^3, mice were treated by i.p. injection with vehicle or PG3-Oc at 5 mg/kg 3 times weekly for 2 weeks.

[2] = test system: MDA-MB-231; assay: CellTiterGlo cell viability assay, MDA-MB-231; format: cell-based; details: Homo sapiens; MDA-MB-231, breast cancer, p53 R280K, 72 hours
Experimental: (§1) • 1) Cell lines: HT29, SW480, DLD-1, HCT116, and p53-null HCT116 cells, H1975, MDA-MD-231, U251, FaDu, CAL-27, PANC-1, Aspc-1, and MRC5 were obtained from the ATCC and cultured as recommended. Cells were regularly authenticated by bioluminescence, growth, and morphologic observation. The cells were routinely examined for Mycoplasma and all cell lines underwent STR authentication. • 2) Western blotting: After treatment, protein lysates were collected for Western blot analysis. 15 μg of protein was used for SDS-PAGE. After primary and secondary antibody incubations, the signal was detected by chemiluminescent detection kit, imaged by Syngene (Imgen Technologies). […] The cell viability was assessed by CellTiterGlo bioluminescent cell proliferation assay (Promega), following the manufacturer's protocol. Bioluminescence imaging was measured using the IVIS imager. Percentage of cell viability (mean±SEM) at each dose was calculated against the respective DMSO control. The IC50 values were determined from the sigmoidal dose-response curves using GraphPad Prims4. • 4) Caspase activity assay: Cells were seeded in 96-well plate (1×10^4 cells/well). […] The caspase 3/7 activity was assessed by Caspase-Glo® 3/7 Assay kit (Promega), following the manufacturer's protocol. Bioluminescence imaging was measured using the IVIS imager. […]

[3] = test system: ATF4 and CHOP in DLD1 cells; assay: Western blot of ATF4 and CHOP, DLD1; format: cell-based, human
Experimental: as §1

[4] = test system: HT29 cells; assay: qRT-PCR of p53 target gene mRNA, HT29; format: cell-based, human; details: HT29, 1 μM, 8 and 19 hours post-treatment
Experimental: as §1

[5] = test system: SW480 cells; assay: qRT-PCR of p53 target gene mRNA, SW480; format: cell-based, human; details: SW480, 1 μM
Experimental: Total RNA was isolated from PG3-Oc-treated cells using the Quick-RNA mini prep kit (Zymo Research, Irvine, CA) according to the manufacturer's protocol. 500 ng of total RNA was used to generate cDNA using SuperScript III first-strand synthesis system with random primers (Invitrogen), following the manufacturer's protocol. Real-time PCR was performed using POWER SYBR GREEN mast mix (Applied Biosystem) for DR5, p21, PUMA, GAPDH, and TaqMan primer-probes for detection of c-Myc mRNA levels on 7900HT Sequence Detection System (Applied Biosystem). Primers having SEQ ID NOs:1-6 (see above) were used. Taq Prob IDs for c-Myc (HS 00153408) and GAPDH (HA 99999905). ΔΔCt method was used to analyze and report fold changes of the indicated genes.

[6] = test system: CCD 841 Con; assay: CellTiterGlo cell viability assay, CCD 841 Con normal colon cells; format: cell-based; details: Homo sapiens, non-transformed colorectal epithelial cells, p53 WT, 72 hours
Experimental: Cells were seeded in 96-well plates (6×10^3 cells/well). Cells were treated with different concentrations of compounds or dimethyl sulfoxide (DMSO) as a control for 72 hours. The cell viability was assessed by CellTiterGlo bioluminescent cell proliferation assay (Promega), following the manufacturer's protocol. Bioluminescence imaging was measured using the IVIS imager. Percentage of cell viability (mean±SEM) at each dose was calculated against the respective DMSO control. The IC50 values were determined from the sigmoidal dose-response curves using GraphPad Prism.

[7] = nude mice, 5 mg/kg i.p. 3 times weekly

## CCCCCCCCOC(=O)CCc1c(C)[nH]c(/C=C2\N=C(c3ccc[nH]3)C=C2OC)c1C [PG3-Oc, Octyl (Z)-3-(5-((4′-methoxy-1H,5′H-[2,2′-bipyrrol]-5′-ylidene)methyl)-2,4-dimethyl-1H-pyrrol-3-yl)propanoate]
[1]; mouse, in vivo, ip, 5 mg/kg
  body weight versus vehicle treatment group: No significant difference
[1]; [7]
  Ki-67 expression in tumors as compared with the vehicle group: significantly decreased
  PUMA in tumors as compared with controls: significantly induced
  tumor volume as compared with vehicle-treated mice: significantly reduced
[2]
  IC50: 242 nM
[3]
  concentration at which induction of ATF4 and CHOP occurred: 5 µM
[4]
  induction of p21 mRNA: Over 3 fold
[5]; 8 and 19 hours post-treatment
  induction of p21 mRNA: no significant change
[5]; 19 hours post-treatment
  DR5 mRNA upregulation: about 2 fold
[6]
  IC50: 375 nM
